# Experimental data as given in patent US9115143B2, “Substituted indole derivatives as gamma secretase modulators” (Janssen Pharmaceuticals, Inc., priority 2011, dated 2015).
# Experiments:
# Aβtotal [1] = experiment: In vivo efficacy B-1a/B-2a: brain soluble Aβtotal in non-transgenic rodents, ELISA; parameters: species or system mouse; conditions: dose 30 mg/kg oral dosing, brain soluble fraction, untreated animals (Ctrl) set at 100; for response vs control in vivo at 30 mg/kg: Mus musculus, po, 4 h, read-out: Aβtotal (% vs Ctrl)_Mean; for Aβtotal (% vs Ctrl)_Mean: 30 mg/kg
# From the text: To determine whether acute administration of an Aβ42 lowering agent would reduce Aβ42 levels in vivo, non-transgenic rodents, e.g. mice or rats were used. Animals treated with the Aβ42 lowering agent were examined and compared to those untreated or treated with vehicle and brain levels of soluble Aβ42 and total Aβ were quantitated by standard techniques, for example, using ELISA. Treatment periods varied from hours (h) to days and were adjusted based on the results of the Aβ42 lowering once a time course of onset of effect could be established.
# A typical protocol for measuring Aβ42 lowering in vivo is shown but it is only one of many variations that could be used to optimize the levels of detectable Aβ. For example, Aβ42 lowering compounds were formulated in 20% of Captisol® (a sulfobutyl ether of β-cyclodextrin) in water or 20% hydroxypropyl β cyclodextrin. The Aβ42 lowering agents were administered as a single oral dose or by any acceptable route of administration to overnight fasted animals. After 4 h, the animals were sacrificed and Aβ42 levels were analysed.
# Blood was collected by decapitation and exsanguinations in EDTA-treated collection tubes. Blood was centrifuged at 1900 g for 10 minutes (min) at 4° C. and the plasma recovered and flash frozen for later analysis. The brain was removed from the cranium and hindbrain. The cerebellum was removed and the left and right hemisphere were separated. The left hemisphere was stored at −18° C. for quantitative analysis of test compound levels. The right hemisphere was rinsed with phosphate-buffered saline (PBS) buffer and immediately frozen on dry ice and stored at −80° C. until homogenization for biochemical assays.
# Mouse brains from non-transgenic animals were resuspended in 8 volumes of 0.4% DEA (diethylamine)/50 mM NaCl containing protease inhibitors (Roche-11873580001 or 04693159001) per gram of tissue, e.g. for 0.158 g brain, add 1.264 mL of 0.4% DEA. All samples were homogenized in the FastPrep-24 system (MP Biomedicals) using lysing matrix D (MPBio #6913-100) at 6 m/s for 20 seconds. Homogenates were centrifuged at 20800×g for 5 min and supernatants collected. Supernatants were centrifuged at 221.300×g for 50 min. The resulting high speed supernatants were then transferred to fresh eppendorf tubes. Nine parts of supernatant were neutralized with 1 part 0.5 M Tris-HCl pH 6.8 and used to quantify Aβtotal and Aβ42.
# To quantify the amount of Aβtotal and Aβ42 in the soluble fraction of the brain homogenates, Enzyme-Linked-Immunosorbent-Assays were used. Briefly, the standards (a dilution of synthetic Aβ1-40 and Aβ1-42, Bachem) were prepared in 1.5 mL Eppendorf tube in Ultraculture, with final concentrations ranging from 10000 to 0.3 pg/mL. The samples and standards were co-incubated with HRPO-labelled N-terminal antibody JRF/rAμ/2 for Aβ42 detection and with the biotinylated mid-domain antibody 4G8 for Aβtotal detection. 50 μl of conjugate/sample or conjugate/standards mixtures were then added to the antibody-coated plate (the capture antibodies selectively recognize the C-terminal end of Aβ42, antibody JRF/cAβ42/26, for Aβ42 detection and the N-terminus of AB, antibody JRF/rAβ/2, for Aβtotal detection). The plate was allowed to incubate overnight at 4° C. in order to allow formation of the antibody-amyloid complex. Following this incubation and subsequent wash steps the ELISA for Aβ42 quantification was finished by addition of Quanta Blu fluorogenic peroxidase substrate according to the manufacturer's instructions (Pierce Corp., Rockford, Ill.). A reading was performed after 10 to 15 min (excitation 320 nm/emission 420 nm).
# For Aβtotal detection, a Streptavidine-Peroxidase-Conjugate was added, followed 60 min later by an additional wash step and addition of Quanta Blu fluorogenic peroxidase substrate according to the manufacturer's instructions (Pierce Corp., Rockford, Ill.). A reading was performed after 10 to 15 min (excitation 320 nm/emission 420 nm). […]
# Aβ42 = experiment: Screening for γ-secretase-modulating activity: Aβ42 in supernatant of SKNBE2 cells carrying hAPP 695 wild type (Alphalisa); format: cell-based, human; conditions: overnight incubation, Alphalisa on supernatant
# Outline: (§1)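 Secreted Aβ42 (C-terminal/N-terminal antibody pair) and Aβtotal (N-terminal/mid-region pair) were quantified by AlphaLISA after overnight compound exposure of wild-type hAPP 695 SKNBE2 cells at 37 °C. Values expressed relative to compound-free maximum, with IC50 from nonlinear 4-parameter regression.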
# Aβtotal [2] = experiment: Screening for γ-secretase-modulating activity: Aβtotal in supernatant of SKNBE2 cells carrying hAPP 695 wild type (Alphalisa); format: cell-based, human; conditions: overnight incubation, Alphalisa on supernatant
# Outline: as §1
# [3] = Homo sapiens, SKNBE2, SKNBE2 human neuroblastoma cells carrying hAPP 695 wild type
# [4] = SKNBE2 human neuroblastoma cells carrying hAPP 695 wild type
Structure (SMILES),melting point,IC50 (Aβ42; [3]),IC50 (Aβtotal [2]; [3]),IC50 (Aβ42; [4]),IC50 (Aβtotal [2]; [4]),response vs control in vivo at 30 mg/kg (Aβtotal [1]),Aβtotal (% vs Ctrl)_Mean (Aβtotal [1])
"COc1c(C#N)ccc2[nH]c(-c3cn4c(n3)C(c3ccc(F)cc3C)OCC4)cc12 (centres unmarked) [Compound 47, 2-[8-(4-fluoro-2-methylphenyl)-5,6-dihydro-8H-imidazo[2,1-c][1,4]oxazin-2-yl]-4-methoxy-1H-indole-5-carbonitrile]",242.6 °C,–,–,23 nM,> 10000 nM,–,117 % vs Ctrl
"Cc1cc(F)ccc1C1CCCn2nc(-c3cc4nc(-c5cnn(C)c5)ccc4[nH]3)nc21 (centres unmarked) [Compound 69, 8-(4-fluoro-2-methylphenyl)-5,6,7,8-tetrahydro-2-[5-(1-methyl-1H-pyrazol-4-yl)-1H-pyrrolo[3,2-b]pyridin-2-yl]-[1,2,4]triazolo[1,5-a]pyridine]",–,–,–,117 nM,> 10000 nM,122%,–
"COc1c(C#N)ccc2[nH]c(-c3cn4c(n3)C(c3ccc(F)cc3C)CCC4)cc12 (centres unmarked) [Compound 74, 2-[8-(4-fluoro-2-methylphenyl)-5,6,7,8-tetrahydroimidazo[1,2-a]pyridin-2-yl]-4-methoxy-1H-indole-5-carbonitrile]",–,112 nM,> 10000 nM,–,–,85%,–
"COc1c(-c2cnn(C)c2)ccc2[nH]c(-c3cn4c(n3)C(c3ccc(F)cc3C)OCC4)cc12 (centres unmarked) [Compound 96, 8-(4-fluoro-2-methylphenyl)-5,6-dihydro-2-[4-methoxy-5-(1-methyl-1H-pyrazol-4-yl)-1H-indol-2-yl]-8H-imidazo[2,1-c][1,4]oxazine]",–,74 nM,> 10000 nM,–,–,92%,–
"Cc1cc(F)ccc1C1OCCn2cc(-c3cc4cc(-c5cnn(C)c5)ccc4[nH]3)nc21 (centres unmarked) [Compound 99, 8-(4-fluoro-2-methylphenyl)-5,6-dihydro-2-[5-(1-methyl-1H-pyrazol-4-yl)-1H-indol-2-yl]-8H-imidazo[2,1-c][1,4]oxazine]",–,78 nM,> 10000 nM,–,–,115%,–
"COc1c(C#N)ccc2[nH]c(-c3nc4n(n3)CCOC4c3ccc(F)cc3C)cc12 (centres unmarked) [Compound 111, 2-[8-(4-fluoro-2-methylphenyl)-5,6-dihydro-8H-[1,2,4]triazolo[5,1-c][1,4]oxazin-2-yl]-4-methoxy-1H-indole-5-carbonitrile]",–,–,> 10000 nM,93 nM,–,120%,–
"Cc1cn(-c2ccc3[nH]c(-c4nc5n(n4)CCCC5c4ccc(F)cc4C)nc3c2)cn1 (centres unmarked) [Compound 176, 8-(4-fluoro-2-methylphenyl)-5,6,7,8-tetrahydro-2-[5-(4-methyl-1H-imidazol-1-yl)-1H-benzimidazol-2-yl]-[1,2,4]triazolo[1,5-a]pyridine]",–,–,–,89 nM,> 10000 nM,101%,–

# Second part, led by results:
melting point,IC50 (Aβ42; [3]),IC50 (Aβtotal [2]; [3]),IC50 (Aβ42; [4]),IC50 (Aβtotal [2]; [4]),Structure (SMILES),response vs control in vivo at 30 mg/kg (Aβtotal [1]),Aβtotal (% vs Ctrl)_Mean (Aβtotal [1])
189.4 °C,105 nM,> 10000 nM,–,–,"Cc1cn(-c2ccc3[nH]c(-c4nc5n(n4)CCCC5c4ccccc4C)cc3n2)cn1.Cl (centres unmarked) [Compound 5, 5,6,7,8-tetrahydro-2-[5-(4-methyl-1H-imidazol-1-yl)-1H-pyrrolo[3,2-b]pyridin-2-yl]-8-(2-methylphenyl)-[1,2,4]triazolo[1,5-a]pyridine]",80%,–
266.5 °C,47 nM,> 10000 nM,–,–,"Cc1cc(-c2ccc3[nH]c(-c4nc5n(n4)CCCC5c4ccccc4C)cc3n2)ccn1 (centres unmarked) [Compound 6, 5,6,7,8-tetrahydro-8-(2-methylphenyl)-2-[5-(2-methyl-4-pyridinyl)-1H-pyrrolo[3,2-b]pyridin-2-yl]-[1,2,4]triazolo[1,5-a]pyridine]",87%,–
244.9 °C,–,> 10000 nM,138 nM,–,"Cc1cc(F)ccc1C1CCCn2nc(-c3cc4cc(C#N)ccc4[nH]3)nc21 (centres unmarked) [Compound 9, 2-[8-(4-fluoro-2-methylphenyl)-5,6,7,8-tetrahydro[1,2,4]triazolo[1,5-a]pyridin-2-yl]-1H-indole-5-carbonitrile]",–,97 % vs Ctrl
142.1 °C,–,> 10000 nM,126 nM,–,"Cc1ccccc1C1CCCn2nc(-c3cc4cc(C#N)ccc4[nH]3)nc21 (centres unmarked) [Compound 12, 2-[5,6,7,8-tetrahydro-8-(2-methylphenyl)[1,2,4]triazolo[1,5-a]pyridin-2-yl]-1H-indole-5-carbonitrile]",–,91 % vs Ctrl
229 °C,117 nM,> 10000 nM,–,–,"N#Cc1ccc2[nH]c(-c3nc4n(n3)CCCC4c3ccccc3C(F)(F)F)cc2c1 (centres unmarked) [Compound 18, 2-[5,6,7,8-tetrahydro-8-[2-(trifluoromethyl)phenyl][1,2,4]triazolo[1,5-a]pyridin-2-yl]-1H-indole-5-carbonitrile]",102%,–
225.1 °C,275 nM,> 10000 nM,–,–,"N#Cc1ccc2[nH]c(-c3nc4n(n3)CCCC4c3cccc(OC(F)(F)F)c3)cc2c1 (centres unmarked) [Compound 20, 2-[5,6,7,8-tetrahydro-8-[3-(trifluoromethoxy)phenyl][1,2,4]triazolo[1,5-a]pyridin-2-yl]-1H-indole-5-carbonitrile]",113%,–
236.2 °C,–,> 10000 nM,54 nM,–,"COc1c(C#N)ccc2[nH]c(-c3cn4c(n3)C(c3ccc(F)cc3C)OCC4)cc12 (centres unmarked) [Compound 46, 2-[8-(4-fluoro-2-methylphenyl)-5,6-dihydro-8H-imidazo[2,1-c][1,4]oxazin-2-yl]-4-methoxy-1H-indole-5-carbonitrile]",–,88 % vs Ctrl
–,–,7240 nM,46 nM,–,"Cc1cn(-c2ccc3[nH]c(-c4nc5n(n4)CCCC5c4ccc(F)cc4C)cc3n2)cn1 (centres unmarked) [Compound 65, 8-(4-fluoro-2-methylphenyl)-5,6,7,8-tetrahydro-2-[5-(4-methyl-1H-imidazol-1-yl)-1H-pyrrolo[3,2-b]pyridin-2-yl]-[1,2,4]triazolo[1,5-a]pyridine]",108%,–
–,65 nM,> 10000 nM,–,–,"Cc1cn(-c2cc3cc(-c4nc5n(n4)CCCC5c4ccc(F)cc4C)[nH]c3cn2)cn1 (centres unmarked) [Compound 71, 8-(4-fluoro-2-methylphenyl)-5,6,7,8-tetrahydro-2-[5-(4-methyl-1H-imidazol-1-yl)-1H-pyrrolo[2,3-c]pyridin-2-yl]-[1,2,4]triazolo[1,5-a]pyridine]",115%,–
–,43 nM,> 10000 nM,–,–,"Cc1cn(-c2ccc3[nH]c(-c4nc5n(n4)CCCC5c4ccc(F)cc4C)cc3c2)cn1 (centres unmarked) [Compound 73, 8-(4-fluoro-2-methylphenyl)-5,6,7,8-tetrahydro-2-[5-(4-methyl-1H-imidazol-1-yl)-1H-indol-2-yl]-[1,2,4]triazolo[1,5-a]pyridine]",80%,–
